System: Haemophilus influenzae serotype b
Test: PRP production in liquid wheat peptone-based culture medium as a function of heme source (sandwich ELISA on supernatant)
Type: cell-based
Conditions: for Mean PRP / PRP in mg/l Assay 1 / PRP in mg/l Assay 2: wheat medium, 16 h
Protocol: The production of PRP obtained after 16 hours of bacterial culture in liquid plant peptones-based culture media in which the heme source was either hemin or protoporphyrin IX of animal origin (porcine protoporphyrin) in disodium salt form, or protoporphyrin IX of purely synthetic origin in disodium salt form was compared. The hemin and protoporphyrin IX concentration ranges in the culture media varied from about 0.010 g/l to about 2 g/l so as to obtain PRP titration curves as a function of the heme source tested and as a function of the plant peptone tested. An enzymatic hydrolysate of garden pea peptone provided by Kerry (Hy pea 7404) and a wheat peptone provided by Organotechnie (19559) were tested at a concentration in the culture medium equivalent to 0.87 g/l of protein nitrogen. By reference to the current methods for the production of PRP, PRP production was also measured in a medium that contains a peptone of animal origin, such as casein hydrolysate (HAC) provided by Solabia at a concentration in the medium equivalent to 0.87 g/l with increased concentrations of hemin (see table III).
1.1) Preparation of the Media • 1.1.1. Stock solution of β-NAD (Fluka) at 1 g/l in water which was ultrafiltered and then sterilized by filtration through 0.22 μm. • 1.1.2. Stock solution of hemin (Sigma) at 0.25 g/l in water was ultrafiltered, comprising 5 ml of 25% aqueous ammonia (Cooper) to aid dissolution. The stock solution was sterilized by filtration through 0.22 μm. • 1.1.3. Stock solution of porcine protoporphyrin IX (Sigma) at 0.25 g/l in ultrafiltered water comprising 5 ml of 25% aqueous ammonia (Cooper) in order to facilitate the dissolution. The stock solution was sterilized by filtration through 0.22 μm. • 1.1.4. Stock solution of synthetic protoporphyrin IX at 0.25 g/l in ultrafiltered water comprising 5 ml of 25% aqueous ammonia (Cooper) in order to facilitate the dissolution. The stock solution was also heated to 80° C. in a water bath with stirring in order to complete the dissolution before being sterilized by filtration through 0.22 μm. The protoporphyrin IX, in disodium salt form, was synthesized according to the method described in the U.S. provisional patent application Ser. No. 12/057,574, filed Mar. 28, 2008 and application Ser. No. 60/943,735 and filed on Jun. 13, 2007 using the steps which are described in scheme 2. • The stock solutions of hemin and protoporphyrin IX were checked for their respective contents of active compounds after sterilizing filtration. The protoporphyrin IX and hemin contents were determined by Reversed Phase High Performance Liquid Chromatography (RP-HPLC). The chromatographic chain comprises a twin head pump module allowing the formation of a binary gradient, a programmable automatic injector, a diode array UV detector and a chromatographic column of the type Synergi 4 μm, Polar RP-80A (150×4.6) mm, ref 00F-4336-E0, Phenomenex. • The stock solution of hemin (Sigma) to be checked after filtration was diluted ⅓ in distilled water. The stock solutions of porcine protoporphyrin IX (Sigma) and of synthetic protoporphyrin IX to be checked after filtration were diluted ¼ in distilled water. In parallel, a calibration series was prepared in ammoniated water ranging from 0.025 g/l to 0.125 g/l of protoporphyrin IX from porcine protoporphyrin IX from Sigma (ref: 25838-5) and a calibration series ranging from 0.050 g/l to 0.150 g/l of hemin from hemin from Sigma (ref: H5533-256). The samples to be checked and the various solutions of the calibration series were injected in a volume of 20 μl (for the hemin solutions and samples) and of 5 μl (for the protoporphyrin IX solutions and samples). The initial mobile phase consisting of a volume for volume mixture of acetonitrile and 10 mM KH2PO4 pH 2.5 is set at a flow rate of 1 ml/min. A discontinuous gradient was then produced from this mobile phase in order to separate the molecules of interest which are detected at a wavelength of 400 nm. […]

Compound: C=CC1=C(C)c2cc3[n-]c(cc4nc(cc5[n-]c(cc1n2)c(C)c5CCC(=O)O)C(CCC(=O)O)=C4C)c(C)c3C=C.[Cl-].[Fe+3] [Hemin, hemin, reference compound]
- Mean PRP (hemin 11.8 μg/l): 5.3 mg/L
- PRP in mg/l Assay 1 (hemin 11.8 μg/l): 4.98 mg/L
- PRP in mg/l Assay 2 (hemin 11.8 μg/l): 5.61 mg/L
- Mean PRP (hemin 59 μg/l): 13.35 mg/L
- PRP in mg/l Assay 1 (hemin 59 μg/l): 13 mg/L
- PRP in mg/l Assay 2 (hemin 59 μg/l): 13.7 mg/L
- Mean PRP (hemin 118 μg/l): 17.60 mg/L
- PRP in mg/l Assay 1 (hemin 118 μg/l): 17.7 mg/L
- PRP in mg/l Assay 2 (hemin 118 μg/l): 17.5 mg/L
- Mean PRP (hemin 295 μg/l): 32.75 mg/L
- PRP in mg/l Assay 1 (hemin 295 μg/l): 35.3 mg/L
- PRP in mg/l Assay 2 (hemin 295 μg/l): 30.2 mg/L
- Mean PRP (hemin 590 μg/l): 72.4 mg/L
- PRP in mg/l Assay 1 (hemin 590 μg/l): 71.4 mg/L
- PRP in mg/l Assay 2 (hemin 590 μg/l): 73.4 mg/L
- Mean PRP (hemin 1180 μg/l): 291.5 mg/L
- PRP in mg/l Assay 1 (hemin 1180 μg/l): 327 mg/L
- PRP in mg/l Assay 2 (hemin 1180 μg/l): 256 mg/L
- Mean PRP (hemin 1770 μg/l): 466.5 mg/L
- PRP in mg/l Assay 1 (hemin 1770 μg/l): 487 mg/L
- PRP in mg/l Assay 2 (hemin 1770 μg/l): 446 mg/L
- Mean PRP (hemin 2360 μg/l): 495.5 mg/L
- PRP in mg/l Assay 1 (hemin 2360 μg/l): 487 mg/L
- PRP in mg/l Assay 2 (hemin 2360 μg/l): 504 mg/L
- heme source concentration required for optimum / equivalent PRP production (wheat peptone medium (FIG. 2)): about 1500 μg/l

Reference: US8673617B2, “Culture medium for Haemophilus influenzae type B” (Sanofi Pasteur SA, priority 2007, dated 2014)
